According to US5578496A, “Detection of autoantibodies associated with the disease myasthenia gravis” (Board of Regents, Baylor College of Medicine, priority 1994, dated 1996):
Where a SMILES comes first, the peptide text is derived from it. Bridges are numbered along the chain shown (N, C = ends).

Columns and labels:
[1] = tested on: experimental autoimmune myasthenia gravis (EAMG); experiment: Electromyography (repetitive nerve stimulation) for electrophysiological EAMG after immunization with Torpedo AChR; assay type: in vivo, C57/BL6 mice
Protocol: Six weeks old C57/BL6 mice were purchased from Charles River Breeding Laboratories (Wilmington, Mass.). Preimmune sera were obtained from the mice for use as controls in subsequent antibody binding assays. […] Then, on day 0, the mice were immunized subcutaneously in one hind footpad and intramuscularly in the same side shoulder with 20 μg of Torpedo AChR in 100 μl emulsion containing equal volumes of complete Freund's adjuvant and PBS. Thirty days later, the mice were immunized with a similar dose of the receptor in the opposite footpad and shoulder. On the 37th day, test bleeds were obtained from the mice for determination of the antibody titers. Electrophysiological studies were performed on the 38th and 39th days. Finally, the mice were sacrificed on the 40th day and lymph node cells were obtained for T cell studies. To document the electrophysiological evidence of EAMG, amplitudes of serial muscle action potentials were measured by electromyography (EMG) during the repetitive stimulation of the nerve in immunized mice, using the Mystro EMG system (TECA Corporation). A pair of wire electrodes were surgically implanted, encircling the sciatic nerve, two days before EMG. The nerve was stimulated through the implanted electrodes by 3 Hz trains of supramaximal electric current with a duration of 200 microseconds. The corresponding muscle action potentials were recorded with an electrode subcutaneously inserted over the gastrocnemius muscle. A reference electrode was placed at the ankle. Ether inhalation was used during the surgical and recording procedures. […] Students' t-test was used to analyze the differences of amplitude changes between the two groups. A typical myasthenic response of a greater than 10% decrement was considered to constitute an electrophysiological evidence of EAMG. The frequency of electrophysiological EAMG was calculated in each group and analyzed by chi-square test.

peptide α125-148 = experiment: Radioimmunoassay of anti-AChR antisera from pretreated mice: antibody binding to peptide α125-148; assay type: in vivo, C57/BL6 mice
Protocol: Six weeks old C57/BL6 mice were purchased from Charles River Breeding Laboratories (Wilmington, Mass.). Preimmune sera were obtained from the mice for use as controls in subsequent antibody binding assays. After 2-weeks rest, the mice were divided into three groups which received, at eleven, seven and three days before immunization with AChR, an intraperitoneal injection (5 μg in 25 μl of PBS [0.15M NaCl in 0.01M sodium phosphate buffer, pH 7.2]) of either the mPEG-(α125-148) conjugate (Group 1), mPEG-nonsense peptide conjugate (Group 2) or unaltered free peptide α125-148 (Group 3) (FIG. 5). Then, on day 0, the mice were immunized subcutaneously in one hind footpad and intramuscularly in the same side shoulder with 20 μg of Torpedo AChR in 100 μl emulsion containing equal volumes of complete Freund's adjuvant and PBS. Thirty days later, the mice were immunized with a similar dose of the receptor in the opposite footpad and shoulder. On the 37th day, test bleeds were obtained from the mice for determination of the antibody titers. Electrophysiological studies were performed on the 38th and 39th days. Finally, the mice were sacrificed on the 40th day and lymph node cells were obtained for T cell studies.
One mg of the synthetic peptide was dissolved in 50 μl dimethylformamide and then diluted with PBS to 25 μg/ml. A solution of Torpedo AChR in PBS was prepared to contain 2.5 μg/ml. Aliquots (50 μl/well) of the peptide or AChR solutions were added to a 96-well microtiter plate (Falcon Micro Test III flexible assay plate, Becton Dickinson, Oxcard, Calif.) and the plates were incubated at room temperature overnight. After washing 3 times with PBS, the plates were blocked with 0.25% bovine serum albumin (BSA [bovine serum albumin]) in PBS (50 μl/well) at 37° C. for 90 minutes. The plates were washed again 5 times with PBS and to each well was added 50 μl of the serum from AChR-immunized mice, pre-diluted with PBS containing 0.10% BSA, and the plates were covered and allowed to stand at room temperature overnight. After 5 washes with PBS, 50 μl of rabbit IgG antibodies (2.5 μg/ml) against mouse IgG and IgM (Accurate Chemical Scientific Corporation, Westbury, N.Y.) was added to each well and the plates were incubated at 37° C. for 3 hours. The plates were then washed 5 times with PBS and ^125 I-labeled protein A (2×10^5cpm in 50 μl of PBS-0.1% BSA) was added to each well. The plates were incubated for 3 hours at room temperature, after which they were washed and the wells were cut out and counted for bound radioactivity. Pre-immune serum samples, obtained from the mice prior to any experimental treatments, were used as controls to correct for non-specific binding.

[2] = tested on: antibodies against human ACHR α chain peptides; experiment: Binding of anti-peptide antibodies to the peptides on Co-Bind plate; set-up: species or system mice; settings: antisera diluted 1:500 (v/v) with PBS/0.05% casein; corrected for nonspecific binding to casein
Protocol: Anti-peptide antibodies were raised in outbred mice by immunization in the hind footpads of 50 μg of synthetic peptide in 100 μl emulsion prepared from equal volumes of PBS and Freund's complete adjuvant. The immunizations were done on day 1, day 15, day 30 and day 45. Rabbit immune IgG fractions with specificity against human IgG and human IgM and mouse IgG and IgM were obtained from DAKO Co. (DAKO-immunoglobulins a/s, Denmark) and Accurate Chemical Scientific Corp. (Westbury, N.Y.), respectively.
1.0 mg of peptide was dissolved in 5 μl of dimethylformamide and then diluted to 50 μg/ml with 0.15M NaCl in 0.01M sodium phosphate buffer, pH 7.2, containing 0.01% thimerosal (PBS). Aliquots of the peptide solution, were applied to wells of the 96-well Co-Bind plate. The plates were incubated at room temperature overnight with continuous gentle rocking. After washing three times with PBS, the wells were quenched (3 hrs., room temperature) with 0.2 ml of 1.0M glycine-NaOH, pH 7.2. After washing the wells three times with PBS, an aliquot (100 μl) of a 0.1% solution of casein in PBS were added to each well and the plates were incubated at 37° C. for 90 min to block the remaining reactive groups on the wells. The plates were then washed three times with PBS and incubated (37° C., 4 hrs) with 100 μl of plasma or mouse antiserum (1:200 or 1:500 dilution with PBS containing 0.1% casein). For binding to peptide α182-198, the plates were blocked with, and plasma were diluted in, 0.5% (instead of 0.1%) casein in PBS. After washing four times with PBS, the plates were incubated (4° C., overnight) with 100 μl of rabbit anti-human (IgG+IgM) or anti-mouse (IgG+IgM) (2.5 μg/ml) in PBS containing 0.1% casein. The plates were washed four times with PBS and incubated (3 hrs., room temperature) with ^125 I-labeled protein A (2×10^5 cpm) in 100 μl of PBS-0.1% casein. After washing five times with PBS, bound radioactivity was removed from the wells, by the addition of 100 μl of 5% SDS in 0.2N NaOH. The plates were allowed to stand for 20 min at room temperature and the solutions were then transferred quantitatively to small test tubes for counting. This procedure was repeated three times, and the solutions in each case were added to the respective tubes. The samples were counted on a Beckman 4000 gamma counter. The radioactivity bound by three unrelated proteins (casein, cytochrome C and bovine serum albumin) and a nonsense peptide (ESSGTGIESSGTGI) (Atassi et al. 1987) were used as controls to correct for nonspecific binding. It should be noted that in other experiments, in which the plates were blocked and all dilutions were made with PBS containing human adult hemoglobin or bovine serum albumin, the non-specific binding was considerably higher than when casein was used.
To confirm that the synthetic human AChR peptides can be coupled to Co-Bind plate, they were used to raise anti-peptide antibodies in mice. The peptides were bound onto the well of Co-Bind plates, followed by reaction with the respective anti-peptide antibody, pre-diluted 1:500 (v/v) with PBS/0.05% casein.

[3] = 5 μg i.p. at 11, 7 and 3 days before immunization with Torpedo AChR, EMG on days 38-39

Row | Compound | Antibody Binding to immunizing Peptide (CPM) [2] | also measured
1 | CC[C@H](C)[C@H](NC(=O)CNC(=O)[C@H](CC(C)C)NC(=O)[C@H](CCCCN)NC(=O)[C@H](CCSC)NC(=O)[C@@H](NC(=O)[C@@H]1CSSC[C@H](NC(=O)[C@H](Cc2ccc(O)cc2)NC(=O)[C@H](CO)NC(=O)[C@@H](N)CCCCN)C(=O)N[C@@H](CCC(=O)O)C(=O)N[C@@H]([C@@H](C)CC)C(=O)N[C@@H]([C@@H](C)CC)C(=O)N[C@@H](C(C)C)C(=O)N[C@@H]([C@@H](C)O)C(=O)N[C@@H](Cc2c[nH]cn2)C(=O)N[C@@H](Cc2ccccc2)C(=O)N2CCC[C@H]2C(=O)N[C@@H](Cc2ccccc2)C(=O)N[C@@H](CC(=O)O)C(=O)N[C@@H](CCC(N)=O)C(=O)N[C@@H](CCC(N)=O)C(=O)N[C@@H](CC(N)=O)C(=O)N1)[C@@H](C)O)C(=O)O [α125-148] (H-KSYCEIIVTHFPFDQQNCTMKLGI-OH; disulfide 4-18) |  | mean amplitude change of muscle action potentials [1, 3]: -15.9%; mice showing a decremental response greater than 10% [1, 3]: 56%; antibody binding to peptide α125-148, mean net cpm ± standard deviation (peptide α125-148; anti-AChR antisera of individual mice, day 37 bleeds): 3626+2214 cpm; antibody binding to peptide α125-148, pooled antisera in serial dilutions (peptide α125-148; pooled serum of each group, various dilutions): consistently greater than the other two controls; antibodies bound to peptide α125-148 in anti-AChR antisera (peptide α125-148; pretreatment prior to immunization with Torpedo AChR): no decrease
2 | α158-174: synthetic peptide, residues α158-174 of human AChR α-chain (INPESDQPDLSNFMESG) | 14799 CPM | 
3 | CC[N+](C)(C)c1cccc(O)c1 [edrophonium chloride, reference compound] |  | decremental amplitude after edrophonium ([1]; EAMG-positive mouse with -33% decrement, 3 minutes after i.p. injection of 250 μg): -13%; reversibility of typical myasthenic decremental response ([1]; i.p. injection of 250 μg): reversible
4 | α78-93: synthetic peptide, residues α78-93 of human AChR α-chain (IHIPSEKIWRPDLVLY) | 4433 CPM | 
5 | α89-104: synthetic peptide, residues α89-104 of human AChR α-chain (DLVLYNNADGDFAIVK) | 29199 CPM | 
6 | α134-150: synthetic peptide, residues α134-150 of human AChR α-chain (HFPFDEQNGSMKLGTWT) | 52077 CPM | 
7 | α194-210: synthetic peptide, residues α194-210 of human AChR α-chain (PDTPYLDITYHFVMQRL) | 66804 CPM | 
8 | α170-186: synthetic peptide, residues α170-186 of human AChR α-chain (FMESGEWVIKESRGWKH) | 71323 CPM | 
9 | α67-82: synthetic peptide, residues α67-82 of human AChR α-chain (WNPDDYGGVKKIHIPS) | 22884 CPM | 
10 | α56-71: synthetic peptide, residues α56-71 of human AChR α-chain (LKQQWVDYNLKWNPDD) | 36038 CPM | 
11 | α45-60: synthetic peptide, residues α45-60 of human AChR α-chain (EVNQIVTTNVRLKQQW) | 82404 CPM | 
12 | α34-49: synthetic peptide, residues α34-49 of human AChR α-chain (GLQLIQLINVDEVNQI) | 62360 CPM | 
13 | α1-16: synthetic peptide, residues α1-16 of human AChR α-chain (SEHETRLVAKLFKDYS) | 78940 CPM | 
14 | α146-162: synthetic peptide, residues α146-162 of human AChR α-chain (LGTWTYDGSVVAINPES) | 13649 CPM | 
15 | α23-38: synthetic peptide, residues α23-38 of human AChR α-chain (EDHRQVVEVTVGLQLI) | 71893 CPM | 
16 | α100-115: synthetic peptide, residues α100-115 of human AChR α-chain (FAIVKFTKVLLQYTGH) | 57717 CPM | 
